Data from ChEMBL document CHEMBL1208788 (Bioorg Med Chem Lett, 2010).

Target: Cannabinoid receptor 1 (Homo sapiens, UniProt P21554)
Assay: Displacement of [3H][…] from human recombinant cannabinoid CB1 receptor expressed in CHO cells
Type: cell-based

Cannabinoid receptor 1, sequence (P21554 whole entry): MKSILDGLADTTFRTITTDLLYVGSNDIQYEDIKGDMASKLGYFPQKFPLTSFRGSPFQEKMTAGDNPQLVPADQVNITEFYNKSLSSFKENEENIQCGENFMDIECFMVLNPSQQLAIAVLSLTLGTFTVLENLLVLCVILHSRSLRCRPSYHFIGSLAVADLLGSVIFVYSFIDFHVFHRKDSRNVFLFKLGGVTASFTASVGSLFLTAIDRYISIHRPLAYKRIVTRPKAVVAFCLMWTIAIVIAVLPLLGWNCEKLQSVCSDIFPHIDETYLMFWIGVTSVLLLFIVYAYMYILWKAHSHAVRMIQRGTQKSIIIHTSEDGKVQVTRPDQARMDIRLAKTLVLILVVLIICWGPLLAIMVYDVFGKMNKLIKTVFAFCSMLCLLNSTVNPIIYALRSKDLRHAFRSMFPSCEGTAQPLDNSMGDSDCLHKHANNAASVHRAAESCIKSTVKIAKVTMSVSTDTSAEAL

Compound	IC50
CC(C)(Oc1ccc(C(F)(F)F)cn1)C(=O)N1CC(Cc2ccc(Cl)cc2)(c2ccccc2)C1	1300 nM
C[C@H](NC(=O)C(C)(C)Oc1ccc(C(F)(F)F)cn1)[C@@H](Cc1ccc(Cl)cc1)c1cccc(Br)c1 (racemic)	0.59 nM
CC(C)(Oc1ccc(C(F)(F)F)cn1)C(=O)NC(C)(C)[C@@H](Cc1ccc(Cl)cc1)c1cccc(Br)c1 (racemic)	22 nM
CC(C)(Oc1ccc(C(F)(F)F)cn1)C(=O)NCC(C)(Cc1ccc(Cl)cc1)c1cccc(Br)c1 (racemic)	340 nM
CC(NC(=O)C(C)(C)Oc1ccc(C(F)(F)F)cn1)C(C)(Cc1ccc(Cl)cc1)c1cccc(Br)c1 (racemic)	25 nM
CC(C)(Oc1ccc(C(F)(F)F)cn1)C(=O)N1CCC(Cc2ccc(Cl)cc2)(c2ccccc2)C1 (racemic)	810 nM
CC(C)(Oc1ccc(C(F)(F)F)cn1)C(=O)N1CCCC(Cc2ccc(Cl)cc2)(c2ccccc2)C1 (racemic)	2000 nM
CC(NC(=O)C(C)(C)Oc1ccc(C(F)(F)F)cn1)C(C)(Cc1ccc(Cl)cc1)c1cccc(Br)c1 (stereo in doubt; 5b)	260 nM
